Calls of active or inactive are those of the source. The rule behind the calls is not given here.
How the values were obtained:
HT-29 [1] = test: Antiproliferative activity against human HT-29 cells harbouring wild-type KRAS and RON delta 160 assessed as cell growth inhibition measured after 72 hrs by MTS assay; assay type: functional
[2] = target: T1, Macrophage-stimulating protein receptor (Homo sapiens, UniProt Q04912); test: Inhibition of N-terminal GST-tagged human recombinant RON (979 to 1400(end) residues) expressed in Sf21 cells incubated for 20 mins followed by ATP addition measured after 60 mins by TR-FRET based LanthaScreen kinase assay
KM12C [3] = test: Antiproliferative activity against human KM12-C cells harbouring wild-type KRAS and RON delta 160 assessed as cell growth inhibition measured after 72 hrs by MTS assay; assay type: functional
SW-620 = test: Antiproliferative activity against human SW620 cells harbouring KRAS G12 V mutant and RON delta 155 assessed as cell growth inhibition measured after 72 hrs by MTS assay; assay type: functional
KM12C [4] = test: Antiproliferative activity against human KM12-C cells harbouring wild-type KRAS and RON delta 160 assessed as cell death rate at 5 uM measured after 48 hrs by trypan blue exclusion assay relative to control; assay type: functional
HT-29 [5] = test: Antiproliferative activity against human HT-29 cells harbouring wild-type KRAS and RON delta 160 assessed as cell death rate at 5 uM measured after 48 hrs by trypan blue exclusion assay relative to control; assay type: functional
[6] = target: Hepatocyte growth factor receptor (Homo sapiens, UniProt P08581); test: Inhibition of c-Met (unknown origin)
Sequence of Hepatocyte growth factor receptor (P08581 whole entry): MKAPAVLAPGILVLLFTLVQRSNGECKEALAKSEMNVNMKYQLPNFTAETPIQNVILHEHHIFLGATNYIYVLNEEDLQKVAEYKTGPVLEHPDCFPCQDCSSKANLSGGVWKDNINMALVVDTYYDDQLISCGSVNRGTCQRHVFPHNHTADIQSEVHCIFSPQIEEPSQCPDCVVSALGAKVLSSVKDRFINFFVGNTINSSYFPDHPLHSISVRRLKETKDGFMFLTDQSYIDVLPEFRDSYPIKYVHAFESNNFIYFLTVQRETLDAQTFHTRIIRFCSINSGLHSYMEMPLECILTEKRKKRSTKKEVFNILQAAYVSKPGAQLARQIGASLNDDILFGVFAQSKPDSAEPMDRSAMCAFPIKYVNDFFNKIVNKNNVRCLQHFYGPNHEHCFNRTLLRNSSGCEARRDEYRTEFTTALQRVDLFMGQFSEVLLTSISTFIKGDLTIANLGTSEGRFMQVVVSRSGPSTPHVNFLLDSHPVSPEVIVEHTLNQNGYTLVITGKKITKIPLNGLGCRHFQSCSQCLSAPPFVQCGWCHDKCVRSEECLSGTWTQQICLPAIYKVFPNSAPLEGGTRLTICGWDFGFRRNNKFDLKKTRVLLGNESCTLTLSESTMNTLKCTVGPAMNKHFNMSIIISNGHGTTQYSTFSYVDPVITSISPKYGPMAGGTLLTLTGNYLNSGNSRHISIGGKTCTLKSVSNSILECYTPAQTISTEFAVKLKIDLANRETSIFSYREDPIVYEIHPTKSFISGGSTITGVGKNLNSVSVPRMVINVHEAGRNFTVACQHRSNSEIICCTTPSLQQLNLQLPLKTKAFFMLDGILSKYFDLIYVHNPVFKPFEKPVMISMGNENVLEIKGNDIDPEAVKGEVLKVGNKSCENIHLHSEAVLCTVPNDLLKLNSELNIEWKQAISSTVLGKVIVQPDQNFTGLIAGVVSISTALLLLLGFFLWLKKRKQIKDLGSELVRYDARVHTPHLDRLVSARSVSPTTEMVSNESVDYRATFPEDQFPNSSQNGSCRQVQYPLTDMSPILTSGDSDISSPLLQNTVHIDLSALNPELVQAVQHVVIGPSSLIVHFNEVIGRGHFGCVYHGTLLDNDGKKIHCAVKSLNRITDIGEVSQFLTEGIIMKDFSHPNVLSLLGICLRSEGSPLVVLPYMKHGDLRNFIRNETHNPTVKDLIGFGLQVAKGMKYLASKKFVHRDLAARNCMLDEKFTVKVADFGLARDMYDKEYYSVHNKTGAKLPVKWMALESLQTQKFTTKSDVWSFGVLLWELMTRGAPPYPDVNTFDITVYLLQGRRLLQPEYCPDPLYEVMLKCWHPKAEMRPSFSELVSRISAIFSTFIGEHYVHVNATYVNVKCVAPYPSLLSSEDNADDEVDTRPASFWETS

[7] = target: T1, Macrophage-stimulating protein receptor; test: Inhibition of RON (unknown origin)
[8] = Tmax in Sprague-Dawley rat at 5 mg/kg, po measured after 24 hrs by LC/MS/MS analysis; assay type: ADME, organism-based; conditions: in vivo
[9] = Cmax in Sprague-Dawley rat at 5 mg/kg, po measured after 24 hrs by LC/MS/MS analysis; assay type: ADME, organism-based; design: dose 5 mg/kg, time 24 hrs, route po; conditions: in vivo
[10] = AUC(0 to infinity) in Sprague-Dawley rat at 1 mg/kg, iv measured after 24 hrs by LC/MS/MS analysis; assay type: ADME, organism-based; design: time 24 hrs, dose 1 mg/kg, route iv; conditions: Sprague-Dawley, in vivo
[11] = AUC(0 to infinity) in Sprague-Dawley rat at 5 mg/kg, po measured after 24 hrs by LC/MS/MS analysis; assay type: ADME, organism-based; design: dose 5 mg/kg, time 24 hrs, route po; conditions: Sprague-Dawley, in vivo
[12] = Clearance in Sprague-Dawley rat at 1 mg/kg, iv measured after 24 hrs by LC/MS/MS analysis; assay type: ADME, organism-based; conditions: Sprague-Dawley, in vivo
[13] = Volume of distribution at steady state in Sprague-Dawley rat at 1 mg/kg, iv measured after 24 hrs by LC/MS/MS analysis; assay type: ADME, organism-based; conditions: in vivo, read-out: Vdss
[14] = Half life in Sprague-Dawley rat at 1 mg/kg, iv measured after 24 hrs by LC/MS/MS analysis; assay type: ADME, organism-based; conditions: in vivo
[15] = Half life in Sprague-Dawley rat at 5 mg/kg, po measured after 24 hrs by LC/MS/MS analysis; assay type: ADME, organism-based; conditions: in vivo
[16] = Oral bioavailability in Sprague-Dawley rat at 5 mg/kg measured after 24 hrs by LC/MS/MS analysis; assay type: ADME, organism-based; conditions: Sprague-Dawley, in vivo
[17] = Metabolic stability in human liver microsomes assessed as parent compound remaining after 30 mins in presence of NADPH by LC/MS/MS analysis; assay type: ADME, Microsome; conditions: read-out: Stability
PANC-1 = test: Antiproliferative activity against human PANC-1 cells harbouring KRAS G12D mutant and RON delta 155 assessed as cell growth inhibition measured after 72 hrs by MTS assay; assay type: functional
CAPAN-1 = test: Antiproliferative activity against human CAPAN-1 cells harbouring KRAS G12V mutant and RON delta 155 assessed as cell growth inhibition measured after 72 hrs by MTS assay; assay type: functional
PANC-03-27 = test: Antiproliferative activity against human Panc 03.27 cells harbouring KRAS G12V mutant and RON delta 155 assessed as cell growth inhibition measured after 72 hrs by MTS assay; assay type: functional
SW480 = test: Antiproliferative activity against human SW480 cells harbouring KRAS G12V mutant and RON delta 155 assessed as cell growth inhibition measured after 72 hrs by MTS assay; assay type: functional
MIA PaCa-2 = test: Antiproliferative activity against human MIA PaCa-2 cells harbouring KRAS G12C mutant and RON delta 160 assessed as cell growth inhibition measured after 72 hrs by MTS assay; assay type: functional
ASPC1 = test: Antiproliferative activity against human ASPC1 cells harbouring KRAS G12D mutant and RON delta 165 assessed as cell growth inhibition measured after 72 hrs by MTS assay; assay type: functional
[18] = Antitumor activity against patient derived Colorectal cancer cell harbouring wild-type KRAS and RON delta 160 xenografted in BALB/c mouse assessed as tumor growth inhibition at 10 mg/kg, po qd measured after 28 days; assay type: functional; conditions: Homo sapiens, 672 h, time 28 day, read-out: TGI

SMILES	GI50 (HT-29 [1]) [nM]	IC50 [2] [nM]	GI50 (KM12C [3]) [nM]	GI50 (SW-620) [nM]	further results
CCOc1ccn(-c2cccc(F)c2)c(=O)c1C(=O)Nc1ccc(Oc2ccnc3cc(-c4ccc(CN5CCOCC5)cn4)sc23)c(F)c1	395	0.74	42	640	Activity (KM12C [4]): Active; Activity (HT-29 [5]): Active
CCOc1ccn(-c2ccccc2)c(=O)c1C(=O)Nc1ccc(Oc2ccnc3cc(-c4ccc(CN5CCOCC5)cn4)sc23)c(F)c1			3	260	Activity (KM12C [4]): Active; Activity (HT-29 [5]): Active
CCOc1ccn(-c2ccc(F)cc2)c(=O)c1C(=O)Nc1ccc(Oc2ccnc3cc(-c4ccc(CN5CCC(F)CC5)cn4)sc23)c(F)c1	2440	1.82	17	560	
CCOc1ccn(-c2ccc(F)cc2)c(=O)c1C(=O)Nc1ccc(Oc2ccnc3cc(-c4ccc(CN5CCC(F)C5)cn4)sc23)c(F)c1 (configuration not stated)	650	0.82	16	540	
CCOc1ccn(-c2ccc(F)cc2)c(=O)c1C(=O)Nc1ccc(Oc2ccnc3cc(-c4ccc(CN5CC(F)(F)C5)cn4)sc23)c(F)c1	970	0.48	24	780	
CCCOc1ccn(-c2ccc(F)cc2)c(=O)c1C(=O)Nc1ccc(Oc2ccnc3cc(-c4ccc(CN5CCOCC5)cn4)sc23)c(F)c1	500	0.49	10	590	Activity (KM12C [4]): Active; Activity (HT-29 [5]): Active
CCOc1ccn(-c2ccc(F)cc2)c(=O)c1C(=O)Nc1ccc(Oc2ccnc3cc(-c4ccc(CN5CCOCC5)cn4)sc23)c(Cl)c1	660		15	1090	
CCOc1ccn(-c2ccc(F)cc2)c(=O)c1C(=O)Nc1ccc(Oc2ccnc3cc(-c4ccc(CN5CCOCC5)cn4)sc23)cc1Cl	1560		6	2840	
CN1CCC(Oc2ccn(-c3ccc(F)cc3)c(=O)c2C(=O)Nc2ccc(Oc3ccnc4cc(-c5ccc(CN6CCOCC6)cn5)sc34)c(F)c2)C1 (configuration not stated)	5610	5.47	55	3660	
CCOc1ccn(-c2ccc(F)cc2)c(=O)c1C(=O)Nc1cc(F)c(Oc2ccnc3cc(-c4ccc(CN5CCOCC5)cn4)sc23)c(F)c1	642	2.25	40	1350	
CCOc1ccn(-c2ccc(F)cc2)c(=O)c1C(=O)Nc1ccc(Oc2ccnc3cc(-c4ccc(CN5CC(OC)C5)cn4)sc23)c(F)c1	1640	0.16	27	1030	
O=C(Nc1ccc(Oc2ccnc3cc(-c4ccc(CN5CCOCC5)cn4)sc23)c(F)c1)c1c(OCCC2CC2)ccn(-c2ccc(F)cc2)c1=O	860	0.72	11	2370	
COc1ccc2c(Oc3ccc(NC(=O)c4c(C)n(CC(C)(C)O)n(-c5ccccc5)c4=O)cc3F)ccnc2c1					IC50 [6]: 9 nM
CCOc1ccn(-c2ccc(F)cc2)c(=O)c1C(=O)Nc1ccc(Oc2ccnc3cc(-c4ccc(CCN5CCOCC5)cn4)sc23)c(F)c1	650	2.83	26	830	
CCOc1ccn(-c2ccc(F)cc2)c(=O)c1C(=O)Nc1ccc(Oc2ccnc3cc(-c4ccc(CN5CCC(F)(F)C5)cn4)sc23)c(F)c1	4880	0.86	9	620	
CCCCOc1ccn(-c2ccc(F)cc2)c(=O)c1C(=O)Nc1ccc(Oc2ccnc3cc(-c4ccc(CN5CCOCC5)cn4)sc23)c(F)c1	840	0.98	15	1000	

SMILES	GI50 (HT-29 [1]) [nM]	IC50 [2] [nM]	GI50 (KM12C [3]) [nM]	GI50 (SW-620) [nM]	further results
CN1CCC(COc2ccn(-c3ccc(F)cc3)c(=O)c2C(=O)Nc2ccc(Oc3ccnc4cc(-c5ccc(CN6CCOCC6)cn5)sc34)c(F)c2)C1 (configuration not stated)		75.6			
CCOc1ccn(-c2ccc(F)cc2)c(=O)c1C(=O)Nc1ccc(Oc2ccnc3cc(-c4ccc(CN5CCN(C)CC5)cn4)sc23)c(F)c1			9	680	
CCOc1ccn(-c2ccc(F)cc2)c(=O)c1C(=O)Nc1ccc(Oc2ccnc3cc(-c4cn(C)cn4)sc23)c(F)c1	570	0.41	27	810	IC50 [7]: 9 nM; IC50 [6]: 4 nM; Tmax [8]: 2.67 h; Cmax [9]: 810 ng/mL; AUC(0-inf) [10]: 4370 ng·h/mL; AUC(0-inf) [11]: 6670 ng·h/mL; clearance [12]: 3.83 mL/min/kg; Vd [13]: 0.64 L/kg; half-life [14]: 3.03 h; half-life [15]: 3.79 h; bioavailability [16]: 30.5%; remaining at 0.5 h [17]: 49%
CCOc1ccn(-c2ccc(C(F)(F)F)cc2)c(=O)c1C(=O)Nc1ccc(Oc2ccnc3cc(-c4ccc(CN5CCOCC5)cn4)sc23)c(F)c1		17.3			
CCOc1ccn(-c2ccc(F)cc2)c(=O)c1C(=O)Nc1ccc(Oc2ccnc3cc(-c4ccc(CN5CCC(OC)CC5)cn4)sc23)c(F)c1	1770	0.73	19	700	
CCOc1ccn(-c2ccc(F)cc2)c(=O)c1C(=O)Nc1ccc(Oc2ccnc3cc(-c4ccc(CNCCOC)cn4)sc23)c(F)c1	590		3400	440	
CCOc1ccn(-c2ccc(F)cc2)c(=O)c1C(=O)Nc1ccc(Oc2ccnc3cc(-c4ccc(CN5CCC(OC)C5)cn4)sc23)c(F)c1 (configuration not stated)	7710	0.69	23	360	
CCOc1ccn(-c2ccc(F)cc2)c(=O)c1C(=O)Nc1ccc(Oc2ccnc3cc(-c4ccc(CN5CCC(F)(F)CC5)cn4)sc23)c(F)c1	660	6	27	7370	
CCOc1ccn(-c2ccc(Cl)cc2)c(=O)c1C(=O)Nc1ccc(Oc2ccnc3cc(-c4ccc(CN5CCOCC5)cn4)sc23)c(F)c1	600		25	580	
Cc1ccc(C(=O)Nc2ccc(Oc3cc4cnn(C)c4cc3-c3cn[nH]c3)c(F)c2)c(=O)n1-c1ccc(F)cc1 [MERESTINIB]					IC50 [7]: 12 nM
CN(C)CCOc1ccn(-c2ccc(F)cc2)c(=O)c1C(=O)Nc1ccc(Oc2ccnc3cc(-c4ccc(CN5CCOCC5)cn4)sc23)c(F)c1	970	2.15	35	1920	
CCOc1ccn(-c2ccc(F)cc2)c(=O)c1C(=O)Nc1ccc(Oc2ccnc3cc(-c4ccc(OCCN5CCOCC5)cn4)sc23)c(F)c1	2770	2.39	38	1560	
CC(C)COc1ccn(-c2ccc(F)cc2)c(=O)c1C(=O)Nc1ccc(Oc2ccnc3cc(-c4ccc(CN5CCOCC5)cn4)sc23)c(F)c1	160	0.62	3	380	Activity (KM12C [4]): Active; Activity (HT-29 [5]): Active
CCOc1ccn(-c2ccc(F)cc2)c(=O)c1C(=O)Nc1ccc(Oc2ccnc3cc(-c4ccccn4)sc23)c(F)c1	3140	0.48	22	1550	
CCOc1ccn(-c2ccc(F)cc2)c(=O)c1C(=O)Nc1ccc(Oc2ccnc3cc(-c4ccc(CN5CC(F)C5)cn4)sc23)c(F)c1	1250	0.63	16	200	
C[C@@H](Oc1cc(-c2cnn(C3CCNCC3)c2)cnc1N)c1c(Cl)ccc(F)c1Cl [CRIZOTINIB]	4000				GI50 (PANC-1): 2560 nM; GI50 (CAPAN-1): 5120 nM; GI50 (PANC-03-27): 6350 nM; GI50 (SW480): > 10000 nM; GI50 (MIA PaCa-2): 1460 nM; GI50 (ASPC1): 2380 nM; inhibition in vivo at 10 mg/kg [18]: 27.5%

Reference: ChEMBL document CHEMBL5365510, “Discovery of Novel, Thienopyridine-Based Tyrosine Kinase Inhibitors Targeting Tumorigenic RON Splice Variants” (ACS Med Chem Lett, 2023)
